From patent US8883165B2, “Modified peptide vaccine derived from influenza M2” (The Chemo-Sero-Therapeutic Research Institute, priority 2009, dated 2014)
Values joined by “and” are separate entries in the source; they are usually repeats but may differ in a detail not shown here. Equal values may be shown once. “Also recorded” adds a separate entry of the source. Read-outs that look alike come from different tables or passages of the source.

Key:
[1] = test system: Influenza virus (A/PR8/8/34 strain, H1N1); design: species or system BALB/c mice; conditions: mouse, in vivo
M2e [2] = test system: M2e; design: species or system BALB/c mice; conditions: mouse, in vivo
[3] = test system: Influenza virus (A/PR8/8/34 strain, H1N1); format: in vivo, BALB/c mice; conditions: 21 days
M2e [4] = test system: M2e; design: species or system BALB/c mice; conditions: mouse, in vivo; remark: listed apart in the source

Sequence | Survival rate [1] | anti-M2e antibody titer just before challenge (M2e [2]) | Survival rate [3] | anti-M2e antibody titer immediately before challenge (M2e [4])
SLLTEVETPIRNEWGCRCNDSSD (Influenza A virus) [M2e, peptide of 23 amino acid residues, positions No. 2 to No. 24 of M2 in influenza virus type A, no cysteine inserted, reference compound] | 3/8 | could not induce an anti-M2e antibody titer |  | 
SLLTEVETPTRSEWECRCSDSSD [swM2e, reference compound] |  |  | 4/10 and 8/10 | high anti-M2e antibody titer; also recorded: almost no increase in an antibody titer
